Each block holds one molecule with its values, some of them ahead of it.
How the values were obtained:
[1] = system: HT1080 cell line with high FAP expression; experiment: ^68Ga labeling and animal imaging assay (PET/CT) in tumor-bearing mice; type: in vivo; design: Imaging data, Muscle / Imaging data, Bone / Imaging data, Bladder / Imaging data, Tumor / Imaging data, Intestine / Imaging data, Brain / Imaging data, Heart / Imaging data, Liver / Imaging data, Lung / Imaging data, Kidney: unit not given here
Method: A. 1.0 mg of JHH7 precursor was weighed and dissolved in 0.1 M sodium acetate buffer to prepare a 1.0 mg/mL precursor solution.
B. The Ge/Ga generator was eluted stepwise with 5 mL of 0.1 M HCl, and the highest activity fraction (0.5 mL) was collected. 0.5 mL of metal-free 0.1 M sodium acetate buffer (pH=4.5) was added. In a 1.5 mL centrifuge tube as the reaction tube, a specific amount of precursor [1000 (molecular weight)/14.94 μL (precursor solution)/mCi (radionuclide)] was added, vortex-mixed for 10 s, and heated at 95° C., 800 rpm for 15 min.
C. The C18 Sep-Pak was activated with anhydrous ethanol, rinsed thoroughly with pure water, and the excess water was removed.
D. The solution after the reaction was passed through the C18 Sep-Pak, rinsed with pure water, and the excess water was removed. Subsequently, the C18 Sep-Pak was eluted with ethanol, collecting approximately 10 tubes with 3 drops per tube.
E. The final preparation should be a clear solution, prepared fresh for immediate use and limited to the same day.
1) The PET/CT was powered on according to the standard operating procedures, the scanning software was launched, and daily calibration was performed.
2) Animal anesthesia preparation was conducted, where tumor-bearing mice (supplied by Shanghai Alamo Pharmaceutical Technology Co., Ltd., HT1080 cell line with high FAP expression) were anesthetized using isoflurane.
3) After the loss of righting reflex in the tumor-bearing mice, the imaging agent was injected via the tail vein.
4) After drug administration, dynamic scanning at 1 hour and static scanning was performed at 3 hours were performed for 10 minutes.
5) During the process, animal body weight, injection dose, injection time, and residual dose were recorded according to the record sheet, and the time of measuring the injection dose and the time of measuring the residual dose were separately recorded.
6) The uptake in animal tumors, muscles, and other organs was analyzed using PMOD software.
^68Ga-labeled compounds JHH7 and JHH11 were imaged in tumor-bearing mice, and the results are shown in FIG. 5 and FIG. 6, with the imaging data shown in Tables 4 and 5.

[2] = system: HT1080 cell line with high FAP expression; experiment: Therapeutic experiment of ^177Lu-labeled compounds in tumor-bearing mice; type: in vivo, Balb/c Nude mice
Method: Balb/c Nude tumor-bearing mice (supplier: Shanghai Alamo Pharmaceutical Technology Co., Ltd., HT1080 cell line with high FAP expression) aged approximately 6-8 weeks were randomly assigned to 13 experimental groups based on tumor volume, with 5 mice per group. Animal body weight and tumor size were measured, and administration was initiated on the grouping day starting with Group 1 (control group: normal saline). General health and appearance were observed daily after the start of the experiment. Animal body weight and tumor size were measured before each sample collection time point. Any abnormal observations detected during the entire study period were required to be recorded in the raw data.
The synthesized compounds were labeled with ^177Lu and subsequently utilized in the therapeutic assay on mouse tumor models. […] Furthermore, no significant changes in mouse body weight (FIG. 8) were observed throughout the experimental period.
• TGI^TV: Relative tumor inhibition rate (TGI^TV): TGI^TV (%)=[1−(Ti−T0)/(Vi−V0)]×100%; • (Ti: average tumor volume of the treatment group on day i of administration, TO: average tumor volume of the treatment group on day 0 of administration; Vi: average tumor volume of the solvent control group on day i of administration, V0: average tumor volume of the solvent control group on day 0 of administration) • T/C: T/C % is one of the most commonly used indicators for tumor response to treatment: T/C %=T/C*100%; • (T represents the average tumor volume of the treatment group at a specific time point; C represents the average tumor volume of the control group at a specific time point.)
The differences between the treatment groups (tumor volumes of the second, third, fourth, and fifth groups) and the control group (tumor volume of the first group) and between the tumor volumes of the first, third, fourth, and fifth groups and the tumor volume of the second group were analyzed using the two-way ANOVA Fisher's LSD test method. P-values less than 0.05 were considered statistically significant. Both statistical significance and biological significance were taken into account during the result analysis.

Imaging data, Bladder ([1]; 5 min): 3.02 | Imaging data, Bone ([1]; 5 min): 0.17 | Imaging data, Brain ([1]; 5 min): 0.90 | Imaging data, Heart ([1]; 5 min): 4.61 | Imaging data, Intestine ([1]; 5 min): 0.47 | Imaging data, Kidney ([1]; 5 min): 6.73 | Imaging data, Liver ([1]; 5 min): 1.71 | Imaging data, Lung ([1]; 5 min): 1.78 | Imaging data, Muscle ([1]; 5 min): 0.81 | Imaging data, Tumor ([1]; 5 min): 0.91 | Imaging data, Bladder ([1]; 10 min): 49.75 | Imaging data, Bone ([1]; 10 min): 0.28 | Imaging data, Brain ([1]; 10 min): 0.82 | Imaging data, Heart ([1]; 10 min): 2.19 | Imaging data, Intestine ([1]; 10 min): 0.21 | Imaging data, Kidney ([1]; 10 min): 5.59 | Imaging data, Liver ([1]; 10 min): 0.88 | Imaging data, Lung ([1]; 10 min): 0.94 | Imaging data, Muscle ([1]; 10 min): 1.56 | Imaging data, Tumor ([1]; 10 min): 2.47 | Imaging data, Bladder ([1]; 15 min): 84.10 | Imaging data, Bone ([1]; 15 min): 0.30 | Imaging data, Brain ([1]; 15 min): 0.59 | Imaging data, Heart ([1]; 15 min): 1.43 | Imaging data, Intestine ([1]; 15 min): 0.23 | Imaging data, Kidney ([1]; 15 min): 3.87 | Imaging data, Liver ([1]; 15 min): 0.50 | Imaging data, Lung ([1]; 15 min): 0.79 | Imaging data, Muscle ([1]; 15 min): 1.42 | Imaging data, Tumor ([1]; 15 min): 3.36 | Imaging data, Bladder ([1]; 20 min): 109.69 | Imaging data, Bone ([1]; 20 min): 0.18 | Imaging data, Brain ([1]; 20 min): 0.55 | Imaging data, Heart ([1]; 20 min): 1.01 | Imaging data, Intestine ([1]; 20 min): 0.22 | Imaging data, Kidney ([1]; 20 min): 3.35 | Imaging data, Liver ([1]; 20 min): 0.38 | Imaging data, Lung ([1]; 20 min): 0.45 | Imaging data, Muscle ([1]; 20 min): 1.30 | Imaging data, Tumor ([1]; 20 min): 3.88 | Imaging data, Bladder ([1]; 25 min): 145.55 | Imaging data, Bone ([1]; 25 min): 0.17 | Imaging data, Brain ([1]; 25 min): 0.48 | Imaging data, Heart ([1]; 25 min): 0.94 | Imaging data, Intestine ([1]; 25 min): 0.15 | Imaging data, Kidney ([1]; 25 min): 2.74 | Imaging data, Liver ([1]; 25 min): 0.23 | Imaging data, Lung ([1]; 25 min): 0.28 | Imaging data, Muscle ([1]; 25 min): 1.29 | Imaging data, Tumor ([1]; 25 min): 4.70 | Imaging data, Bladder ([1]; 30 min): 157.22 | Imaging data, Bone ([1]; 30 min): 0.10 | Imaging data, Brain ([1]; 30 min): 0.46 | Imaging data, Heart ([1]; 30 min): 0.72 | Imaging data, Intestine ([1]; 30 min): 0.16 | Imaging data, Kidney ([1]; 30 min): 2.88 | Imaging data, Liver ([1]; 30 min): 0.25 | Imaging data, Lung ([1]; 30 min): 0.37 | Imaging data, Muscle ([1]; 30 min): 0.97 | Imaging data, Tumor ([1]; 30 min): 5.00 | Imaging data, Bladder ([1]; 1.5 h): 89.40 | Imaging data, Bone ([1]; 1.5 h): 0.53 | Imaging data, Brain ([1]; 1.5 h): 0.23 | Imaging data, Heart ([1]; 1.5 h): 0.45 | Imaging data, Intestine ([1]; 1.5 h): 0.92 | Imaging data, Kidney ([1]; 1.5 h): 0.71 | Imaging data, Liver ([1]; 1.5 h): 0.52 | Imaging data, Lung ([1]; 1.5 h): 0.54 | Imaging data, Muscle ([1]; 1.5 h): 0.17 | Imaging data, Tumor ([1]; 1.5 h): 6.40 | Imaging data, Bladder ([1]; 3 h): 7.50 | Imaging data, Bone ([1]; 3 h): 0.14 | Imaging data, Brain ([1]; 3 h): 0.12 | Imaging data, Heart ([1]; 3 h): 0.21 | Imaging data, Intestine ([1]; 3 h): 0.60 | Imaging data, Kidney ([1]; 3 h): 0.55 | Imaging data, Liver ([1]; 3 h): 0.43 | Imaging data, Lung ([1]; 3 h): 0.55 | Imaging data, Muscle ([1]; 3 h): 0.19 | Imaging data, Tumor ([1]; 3 h): 5.20 | time of peak uptake in the tumor after injection ([1]; tumor-bearing mice, intravenous injection): 1.5 h
SMILES: N#C[C@@H]1CC(F)(F)CN1C(=O)CNC(=O)c1ccc2c(c1)CN(C(=O)CCC(=O)NCCNC(=O)CCC(C(=O)O)N1CCN(CC(=O)[O-])CCN(CC(=O)[O-])CCN(CC(=O)[O-])CC1)C2.[68Ga+3] (some centres unmarked) [^68Ga-JHH7]
uptake in the tumor at 3 hours ([1]; 3 hours after injection): a certain amount of uptake in the tumor was still observed

SMILES: N#C[C@@H]1CC(F)(F)CN1C(=O)CNC(=O)c1cccc2c1CCN(C(=O)CCC(=O)NCCNC(=O)CCC(C(=O)O)N1CCN(CC(=O)O)CCN(CC(=O)O)CCN(CC(=O)O)CC1)C2 (some centres unmarked) [^177Lu-JHH5, metal not drawn]
T/C ([2]; 0.8 mCi, Day 14): 20.89% | Tumor volume (mm^3) Group administration Day 14 ([2]; 0.8 mCi, Day 14): 545.74 ± 94.21 mm^3 | TGI^TV (%) ([2]; 0.8 mCi, Day 14, relative tumor inhibition rate): 83.08% | Tumor volume (mm^3) Before administration ([2]; baseline, 0.8 mCi group): 148.04 ± 9.78 mm^3
